Like-named read-outs stand apart in the source and are kept apart here. Marks after values point to notes of the source that are not given here. One block for each molecule: values may come before it.
Compound: CCOC(=O)C(C#N)=C(NC(C)C(N)=O)c1cccnc1C(F)(F)F (stereo not drawn) [Compound 705]
- Log P (pH 2.7): 1.91^[a]

Compound: CCOC(=O)C(C#N)=C(NC(C)C(=O)NC)c1cccnc1C(F)(F)F (stereo not drawn) [Compound 706]
- Log P (pH 2.7): 2.05^[a]

Compound: CCOC(=O)C(C#N)=C(NC(C)C(N)=S)c1cccnc1Cl (stereo not drawn) [Compound 708]
- Log P (pH 7.5): 1.87

Compound: CCOC(=O)C(C#N)=C(NC(C)COC)c1ccsc1Br (stereo not drawn) [Compound 714]
- Log P (pH 2.7): 3.21^[a]

Compound: CCOC(=O)C(C#N)=C(NC(C)C(=O)Nc1ccc2ccccc2c1)c1ccsc1Br (stereo not drawn) [Compound 717]
- Log P (pH 2.7): 3.94^[a]

Compound: CCOC(=O)C(C#N)=C(NC(C)C(=O)NC)c1cc(Cl)ncc1Cl (stereo not drawn) [Compound 720]
- Log P (pH 2.7): 2.19^[a]

Compound: CCOC(=O)C(C#N)=C(NC(C)C(N)=O)c1cc(Cl)ncc1Cl (stereo not drawn) [Compound 721]
- Log P (pH 2.7): 2.64^[a]

Compound: CCOC(=O)C(C#N)=C(NC(C)C(N)=O)c1ccncc1Cl (stereo not drawn) [Compound 722]
- Log P (pH 2.7): 1.65^[a]

Compound: CCOC(=O)C(C#N)=C(NC(C)C(=O)NC)c1ccncc1Cl (stereo not drawn) [Compound 723]
- Log P (pH 2.7): 1.78^[a]

Compound: CCOC(=O)C(C#N)=C(NC(C)C(=O)NC)c1cccnc1C(F)F (stereo not drawn) [Compound 724]
- Log P (pH 2.7): 1.62^[a]

Compound: CCNC(=O)C(C)NC(=C(C#N)C(=O)OCC)c1cccnc1Cl (stereo not drawn) [Compound 728]
- Log P (pH 2.7): 2.1^[a]

Compound: CCOC(=O)C(C#N)=C(NC(C)COCc1ccc(C(F)(F)F)cc1)c1cccnc1Cl (stereo not drawn) [Compound 731]
- Log P (pH 2.7): 4.2^[a]

Compound: CCOC(=O)C(C#N)=C(NC(C)COC)c1sccc1Br (stereo not drawn) [Compound 734]
- Log P (pH 2.7): 3.21^[a]

Compound: CCOC(=O)C(C#N)=C(NC(C)COc1ccc(F)cc1)c1cn(C)nc1C(F)F (stereo not drawn) [Compound 736]
- Log P (pH 2.7): 3.42^[a]

Compound: CCOC(=O)C(C#N)=C(NC(C)C(C)Sc1ccccc1)c1cn(C)nc1C(F)F (stereo not drawn) [Compound 737]
- Log P (pH 2.7): 3.87^[a]

Compound: CCOC(=O)C(C#N)=C(NC(C)COCc1ccccc1)c1cn(C)nc1C(F)F (stereo not drawn) [Compound 739]
- Log P (pH 2.7): 3.48^[a]

Compound: CCOC(=O)C(C#N)=C(NC(C)COc1ccccc1Cl)c1cn(C)nc1C(F)F (stereo not drawn) [Compound 741]
- Log P (pH 2.7): 3.6^[a]

Compound: CCOC(=O)C(C#N)=C(NC(C)COc1cccc(OC)c1)c1cn(C)nc1C(F)F (stereo not drawn) [Compound 742]
- Log P (pH 2.7): 3.35^[a]

Compound: CCOC(=O)C(C#N)=C(NC(C)CCl)c1cccnc1Cl (stereo not drawn) [Compound 743]
- Log P (pH 7.5): 2.7

Compound: COC(=O)C(C#N)=C(NC(C)(C)CF)c1cccnc1Cl [Compound 744]
- Log P (pH 2.7): 2.31^[a]

Compound: COC(=O)C(C#N)=C(NC(C)CF)c1cccnc1Cl (stereo not drawn) [Compound 746]
- Log P (pH 2.7): 2.05^[a]

Compound: CCOC(=O)C(C#N)=C(NC(C)CF)c1ccncc1Cl (stereo not drawn) [Compound 750]
- Log P (pH 2.7): 2.42^[a]

Compound: CCOC(=O)C(C#N)=C(NC(C)CF)c1cn(C)nc1C(F)(F)F (stereo not drawn) [Compound 751]
- Log P (pH 2.7): 2.72^[a]

Compound: COC(=O)C(C#N)=C(NC(C)(C)C(C)(C)C)c1sc(C)nc1C(F)(F)F [Compound 754]
- Log P (pH 2.7): 4.02^[a]

Compound: CCOC(=O)C(C#N)=C(NC(C)(C)C(C)(C)C)c1sccc1Br [Compound 755]
- Log P (pH 2.7): 4.67^[a]

Compound: COC(=O)C(C#N)=C(NC(C)CC(F)(F)F)c1cccnc1Cl (stereo not drawn) [Compound 757]
- Log P (pH 2.7): 2.34^[a]

Compound: COC(=O)C(C#N)=C(NC(C)(C)CC(F)(F)F)c1cccnc1Cl [Compound 758]
- Log P (pH 2.7): 2.34^[a]

Compound: COC(=O)C(C#N)=C(NC1CC1F)c1cccnc1Cl (stereo not drawn) [Compound 759]
- Log P (pH 2.7): 1.87^[a]

Compound: CCOC(=O)C(C#N)=C(NC(C)C1CC=CCC1)c1cccnc1Cl (stereo not drawn) [Compound 760]
- Log P (pH 2.7): 3.9^[a]

Compound: CCC(NC(=C(C#N)C(=O)OC)c1cccnc1Cl)C1CCCCC1 (stereo not drawn) [Compound 762]
- Log P (pH 2.7): 4.07^[a]

Compound: COC(=O)C(C#N)=C(NC1CCCC1)c1cccnc1Cl [Compound 763]
- Log P (pH 2.7): 2.61^[a]

Compound: CCOC(=O)C(C#N)=C(NC1CC1)c1cccnc1Cl [Compound 764]
- Log P (pH 2.3): 2.5
- Log P (pH 7.5): 2.36

Compound: COC(=O)C(C#N)=C(NC(C1CC1)C1CC1)c1cccnc1Cl [Compound 765]
- Log P (pH 2.7): 2.85^[a]

Further lines, results first:

- Log P (pH 2.7): 3.62^[a]
Compound: CCOC(=O)C(C#N)=C(NC(C)(C)CSC)c1sc(C)nc1C(F)(F)F [Compound 704]

- Log P (pH 2.7): 1.1^[a]
Compound: CCOC(=O)C(C#N)=C(NC(C)CN)c1sccc1Br (stereo not drawn) [Compound 707]

- Log P (pH 2.7): 2.13^[a]
Compound: CCOC(=O)C(C#N)=C(NC(C)C(N)=O)c1nc(SC)ncc1Br (stereo not drawn) [Compound 709]

- Log P (pH 2.7): 3.82^[a]
Compound: CCOC(=O)C(C#N)=C(NC(C(=O)OC)C(C)C)c1sc(Cl)nc1Cl (stereo not drawn) [Compound 710]

- Log P (pH 2.7): 2.71^[a]
Compound: CCOC(=O)C(C#N)=C(NC(C(=O)OC)C(C)C)c1cn(C)nc1OC (stereo not drawn) [Compound 711]

- Log P (pH 2.7): 4.14^[a]
Compound: CCOC(=O)C(C#N)=C(NC(C(=O)OC)C(C)C)c1cc(Cl)sc1Cl (stereo not drawn) [Compound 712]

- Log P (pH 2.7): 3.09^[a]
Compound: CCOC(=O)C(C#N)=C(NC(C(=O)OC)C(C)C)c1cn(C)nc1C(F)(F)F (stereo not drawn) [Compound 713]

- Log P (pH 2.7): 3.48^[a]
Compound: CCOC(=O)C(C#N)=C(NC(C(=O)OC)C(C)C)c1ccsc1Br (stereo not drawn) [Compound 715]

- Log P (pH 2.7): 3.71^[a]
Compound: CCOC(=O)C(C#N)=C(NC(C(=O)OC)C(C)C)c1ccsc1Br (stereo not drawn) [Compound 716]

- Log P (pH 2.7): 4.86^[a]
Compound: CCOC(=O)C(C#N)=C(NC(C)COc1c(C)cccc1C)c1ccsc1Br (stereo not drawn) [Compound 718]

- Log P (pH 2.7): 2.94^[a]
Compound: C=Cc1nn(C)cc1C(NC(C(=O)OC)C(C)C)=C(C#N)C(=O)OCC (stereo not drawn) [Compound 719]

- Log P (pH 2.7): 3.43^[a]
Compound: CCOC(=O)C(C#N)=C(NC(C(=O)OC)C(C)C)c1cn(C)cc1C(F)(F)F (stereo not drawn) [Compound 726]

- Log P (pH 2.7): 1.8^[a]
Compound: CCOC(=O)C(C#N)=C(NC(C)C(N)=O)c1cnccc1C(F)(F)F (stereo not drawn) [Compound 727]

- Log P (pH 2.7): 1.88^[a]
Compound: CCOC(=O)C(C#N)=C(NC(C)C(N)=O)c1ccnc(Cl)c1Cl (stereo not drawn) [Compound 729]

- Log P (pH 2.7): 2.08^[a]
Compound: CCOC(=O)C(C#N)=C(NC(C)C(=O)NC)c1ccnc(Cl)c1Cl (stereo not drawn) [Compound 730]

- Log P (pH 2.7): 2.07^[a]
Compound: CCOC(=O)C(C#N)=C(NC(C(N)=O)C(C)C)c1cccnc1Cl (stereo not drawn) [Compound 732]

- Log P (pH 2.7): 1.37^[a]
Compound: CCOC(=O)C(C#N)=C(NC(C)C(N)=O)c1ccncc1F (stereo not drawn) [Compound 733]

- Log P (pH 2.7): 3.71^[a]
Compound: CCOC(=O)C(C#N)=C(NC(C)COc1ccc(C)cc1)c1cn(C)nc1C(F)F (stereo not drawn) [Compound 735]

- Log P (pH 2.7): 3.37^[a]
Compound: CCOC(=O)C(C#N)=C(NC(C)COc1ccccc1)c1cn(C)nc1C(F)F (stereo not drawn) [Compound 738]

- Log P (pH 2.7): 3.48^[a]
Compound: CCOC(=O)C(C#N)=C(NC(C)COCc1ccccc1F)c1cn(C)nc1C(F)F (stereo not drawn) [Compound 740]

- Log P (pH 2.7): 2.8^[a]
Compound: CCOC(=O)C(C#N)=C(NC(C)CF)c1cc(C)oc1C (stereo not drawn) [Compound 745]

- Log P (pH 2.7): 3.49^[a]
Compound: CCOC(=O)C(C#N)=C(NC(C)CF)c1cc(Cl)sc1Cl (stereo not drawn) [Compound 747]

- Log P (pH 2.7): 2.23^[a]
Compound: CCOC(=O)C(C#N)=C(NC(C)CF)c1cn(C)nc1OC (stereo not drawn) [Compound 748]

- Log P (pH 2.7): 2.25^[a]
Compound: C=Cc1nn(C)cc1C(NC(C)CF)=C(C#N)C(=O)OCC (stereo not drawn) [Compound 749]

- Log P (pH 2.7): 2.95^[a]
Compound: CCOC(=O)C(C#N)=C(NC(C)CF)c1cn(C)cc1C(F)(F)F (stereo not drawn) [Compound 752]

- Log P (pH 2.7): 3.46^[a]
Compound: CCOC(=O)C(C#N)=C(NC(C)(C)C(C)(C)C)c1cn(C)nc1C(F)F [Compound 753]

- Log P (pH 2.7): 2.76^[a]
Compound: CCC(CC)NC(=C(C#N)C(=O)OC)c1cccnc1Cl [Compound 756]

- Log P (pH 2.7): 3.55^[a]
Compound: CCOC(=O)C(C#N)=C(NC1CCCCC1)c1cccnc1Cl [Compound 761]

- Log P (pH 2.7): 2.84^[a]
Compound: COC(=O)C(C#N)=C(NC(C)CC1CC1)c1cccnc1Cl (stereo not drawn) [Compound 766]

From patent publication US8476197B2, “Aminopropenoates as fungicides” (priority 2009, dated 2013)
